Consider two sequences from patent publication US9708372B2, “Agonistic autoantibodies to the alpha1-adrenergic receptor and the beta2-adrenergic receptor in Alzheimer's and vascular dementia” (E.R.D.E.-AAK-DIAGNOSTIK GMBH, priority 2011, dated 2017).

Assay [1] relates to spontaneously contracting neonatal cardiomyocytes. In words: Cardiomyocyte contraction bioassay: chronotropic response to patient IgG after preincubation with receptor loop peptides. The class given is cell-based, rat. The conditions noted are these: IgG from three AD/vascular dementia patients preincubated 1 hour at 4° C. with 1 μg peptide per 1 μg IgG protein. As to the method: Cultures of neonatal cardiomyocytes were prepared from new-born, one to three days old rats essentially as described in [15]. Chinese hamster ovary cells stably transfected with the A-isoform of the human α1-AR (CHO-α1) were grown in F12 HAM medium supplemented with glutamine, 10% FCS and 1% penicillin streptomycin at 37° C. and 5% CO2.
Functional autoantibodies were detected utilizing the chronotropic responses of cultivated spontaneously contracting neonatal cardiomyocytes. For monitoring the contraction rate of neonatal cardiomyocytes a standardized bioassay based on computer-assisted recording of the contraction rate was employed.
Immunoglobulin (IgG) fractions from serum samples were prepared according to a standard procedure as described in [6]. Patients IgG were added to cultures of neonatal cardiomyocytes to a final dilution of 1:40. After incubation at 37° C. for 60 minutes, the pulsation rate was measured. A total of up to 30 cells or cell clusters for each sample of a given immunoglobulin fraction was analysed. The chronotropic response to the exposition to patient IgG compared to preceding control recordings is given as increases in the number of contractions per minute. Identification of the target GPCR type was performed using specific receptor antagonists, 10^-7 M prazosin to block the α1-AR and 10^-7 M ICI […] for the β2-AR.
For mapping of the target site of agonistic autoantibodies on the receptor, IgG fractions were preincubated for 1 hour at 4° C. with an excess of synthetic peptides corresponding to amino acid sequences of the extracellular loop1 (LGYWAFGRVFCN) or the extracellular loop2 (PAPEDETICQINEE) of the human α1-AR (1 μg peptide per 1 μg IgG protein).

The target of assay [2] is patient IgG (agAAB to the α1-AR). In words: ELISA competition of patient IgG binding to the immobilized peptide by free α1-AR loop1 peptide. The arrangement: species or system human. The conditions noted are these: free peptide 0.3 nM up to 5 μM, patient IgG preincubated with free peptide 15 minutes, nonlinear regression, read-out: EC50 value, competition of IgG binding to the immobilized peptide by soluble α1-AR loop 1 peptide. As to the method:
Shown are data from representative experiments run in triplicates. Values are corrected for unspecific binding. A: Dependence of antibody binding on patient IgG protein. The given amount of IgG protein refers to 100 μl reaction volume (□) binding in the presence of 0.15 M NaCl; (●) binding in the presence of 0.5 M NaCl. B: Time-dependence of antibody binding. C: Competition of binding by increasing concentrations of the free α1-AR loop1 peptide. Concentrations of the free peptide ranged from 0.3 nM to 5.0 μM. The patient IgG was preincubated with the free peptide in solution for 15 minutes.
The binding of agonistic IgG preparations was characterized using standard ELISA techniques. Briefly, biotinylated peptides corresponding to either the first or the second extracellular loop of the human α1A-AR were coupled to pre-blocked streptavidin-coated 96-well plates (Pierce). All experimental steps were performed at room temperature. If not indicated otherwise, 5 μg of IgG protein was used and the incubation time was 30 minutes. As secondary antibody anti-human horseradish conjugated anti-IgG was used. The antibody binding was visualized by the 1-Step Ultra TMB ELISA (Thermo Scientific). The optical density was quantified at 450 nm using a SLT Spectra multiplate reader (TECAN).
A general note: In an ELISA, binding on a coated surface is turned into a signal by an enzyme label.

For assay [3], the target named is T1, A-isoform of the human α1-AR (CHO-α1) (Homo sapiens, UniProt P35348).
T1 construct: expressed in transfected cells; host or cells: CHO (Chinese hamster ovary) cells, stably transfected
T1 sequence (P35348 1-466): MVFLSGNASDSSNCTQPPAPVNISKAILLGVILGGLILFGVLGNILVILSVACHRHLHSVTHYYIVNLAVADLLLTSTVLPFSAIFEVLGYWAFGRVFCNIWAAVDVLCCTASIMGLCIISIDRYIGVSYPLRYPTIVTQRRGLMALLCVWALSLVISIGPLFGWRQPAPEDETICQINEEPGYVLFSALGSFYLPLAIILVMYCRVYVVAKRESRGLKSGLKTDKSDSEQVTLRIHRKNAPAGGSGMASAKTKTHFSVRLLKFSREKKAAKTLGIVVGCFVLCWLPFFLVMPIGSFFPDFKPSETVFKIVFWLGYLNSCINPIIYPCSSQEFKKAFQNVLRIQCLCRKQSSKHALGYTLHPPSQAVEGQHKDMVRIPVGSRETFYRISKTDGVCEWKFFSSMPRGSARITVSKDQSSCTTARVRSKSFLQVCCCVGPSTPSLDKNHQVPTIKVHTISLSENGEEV
As to the kind of experiment: Intracellular calcium (Cai) mobilization in CHO-α1 cells. The class given is cell-based. The protocol:
The data represent mean values of independent measurements of three individual cell populations. A: Time dependence of Cai mobilization by patient IgG compared to the α1-AR agonist phenylephrine (PE). The addition of patient IgG preparation and PE is indicated by the arrow. The additions were (▴) 2.5 μg patient IgG; (▪) 5 μg patient IgG; (●) 5 μM PE. B: Effect of 5 μg human control IgG (Δ) and 5 μg patient IgG (♦) on Cai mobilization. The addition of IgG preparations is indicated by the arrow. C: Inhibitory effect of preincubation of patient IgG with the free α1-AR loop1 peptide. Patient IgG was preincubated with 0.25 μM peptide for 15 minutes before addition to the cells. Peak values (five of each individual measurement) were taken for assessing the decrement in Cai mobilization. […]
The potential of patients IgG fractions to mobilise intracellular calcium (Cai) was assessed using Chinese hamster ovary cells stably transfected with the A-isoform of the human α1-AR (CHO-α1). The cells were trypsinized and plated on black clear bottom 96-well plates suited for fluorescence measurements (Greiner) at a density of 30 000 cells per well. […] Cai was measured on a Perkin Elmer Victor X2 fluorescence multiplate reader equipped with an injector unit. The cells were excited at wave lengths alternating between 340 nm and 380 nm and the fluorescence signal emitted at 510 nm was recorded. […]

Like-named read-outs stand apart in the source and are kept apart here.

As to “PAPEDETICQINEE (listed as Homo sapiens) [loop2 peptide, synthetic peptide corresponding to extracellular loop2 of the human α1-AR]”, the “Effect of peptide preincubation on chronotropic response to patient IgG” value in assay [1] was “did not affect”.
Broadly, the EC50 is the midpoint of the concentration-response curve. On to “LGYWAFGRVFCN [loop1 peptide, synthetic peptide corresponding to extracellular loop1 of the human α1-AR]”, for which the “Effect of peptide preincubation on chronotropic response to patient IgG” value in assay [1] is “nearly abolished”; in assay [1] (listed as L1 peptide), “abolished”. Further, the EC50 in assay [2] (listed as extracellular loop1 peptide) was 30 nM; in assay [2] (listed as α1-AR loop 1 peptide) it was approximately 30 nM. In assay [3] (CHO-α1 cells, peptide alone), the “Effect of the peptide itself on Cai” value is recorded as “no effect”. Besides, the “Effect of peptide preincubation on elevation of Cai by patient IgG” value in assay [3] (patient IgG preincubated with 0.25 μM peptide for 15 minutes, p<0.01) was “reduced significantly”.
